In US6469034B1, “Cyclohexenyl-ethyl-thiourea compounds for inhibiting HIV reverse transcriptase” (Parker Hughes Institute, priority 1999, dated 2002):
Where two headings read alike, the source gives them in different places.

Key:
[1] = target: T1, purified recombinant HIV RT (Human immunodeficiency virus type 1 group M subtype B, UniProt P03366); assay: Purified RT assay, cell-free Quan-T-RT scintillation proximity assay; type: biochemical
T1 construct: Addition of 10 mU of recombinant HIV RT
Description: In the assay, a DNA/RNA template is bound to SPA beads via a biotin/strepavidin linkage. The primer DNA is a 16-mer oligo(T) which has been annealed to a poly(A) template. The primer/template is bound to a strepavidin-coated SPA bead.
^3H-TTP is incorporated into the primer by reverse transcription. […] The compound being tested was added to the reaction mixture at 0.001 μM-100 μM concentrations. […] The reaction was stopped by addition of 0.2 ml of 120 mM EDTA. The samples were counted in an open window using a Beckman LS 7600 instrument and IC50 values were calculated by comparing the measurements to untreated samples.

[2] = tested on: multidrug resistant HIV-1 strain RT-MDR; assay: microbe, parasite or virus in culture; type: cell-based; conditions: for times more effective against RT-MDR than against HTLVIIIB: ratio RT-MDR vs HTLVIIIB; for times more potent than AZT against RT-MDR: vs AZT; for times more potent than MKC-442 against RT-MDR: vs MKC-442; for times more potent than delavirdine against RT-MDR: vs delavirdine; for times more potent than nevirapine against RT-MDR: vs nevirapine; for times more potent than trovirdine against RT-MDR: vs trovirdine
Description: (§1) In addition, the anti-HIV activity of the compounds was measured by determining their ability to inhibit the replication of the HIV-1 strains HTLVIIIB, RT-MDR, A17, and A17 variant in peripheral blood mononuclear cells (PBMC) from healthy volunteer donors, using the method described in Uckun et.al., 1998, Antimicrobial Agents and Chemotherapy 42:383.
(§2) Normal human peripheral blood mononuclear cells (PBMNC) from HIV-negative donors were cultured 72 hours in RPMI 1640 supplemented with 20% (v/v) heat-inactivated fetal bovine serum (FBS), 3% interleukin-2,2 mM L-glutairine, 25 mM HEPES, 2 μL, NAHCO, […] gentamicin, and 4 μg/mL phytohemagglutinin prior to exposure to HIV-1 or other HIV strain at a multiplicity of infection (MOI) of 0.1 during a one-hour adsorption period at 37° C. in a humidified 5% CO2 atmosphere. Subsequently, cells were cultured in 96-well microplates (100 μL/well; 2×10^6 cells/mL, triplicate wells) in the presence of various inhibitor concentrations. Aliquots of culture supernatants were removed from the wells on the 7th day after infection for p24 antigen p24 enzyme immunoassays (EIA), as previously described in Erice et al., 1993, Antimicrob. Ag. Chemotherapy 37:385-838. The applied p24 EIA was the unmodified kinetic assay commercially available from Coulter Corporation/Immunotech, Inc. (Westbrook, Me.). Percent inhibition of viral replication was calculated by comparing the p24 values from the test substance-treated infected cells with p24 values from untreated infected cells (i.e, virus controls).
(§3) RT-MDR was obtained through the AIDS Research and Reference Reagent Program, from Dr. Bendan Larder, and is described in Larder et al., 1993, Nature, 365, 451-453.

[3] = Microculture tetrazolium assay (MTA, XTT) for cytotoxicity; type: cell-based; conditions: for CC50: cytotoxicity, XTT; for toxicity at effective concentrations: in words
HIV-1 strain HTLVIIIB = assay: Inhibition of HIV p24 antigen production in PBMC, strain HTLVIIIB; type: cell-based; conditions: read-out: IC50 HTLVIIIB
Description: as §1, §2, §3

[4] = tested on: A17 variant with both Y181C and K103N mutations in RT; assay: microbe, parasite or virus in culture; type: cell-based, HIV-1; conditions: read-out: IC50 A17 variant
Description: as §1, §2, §3

[5] = tested on: RT Y181C mutant A17 strain; assay: microbe, parasite or virus in culture; type: cell-based, HIV-1; conditions: for IC50: read-out: IC50 A17
Description: as §1, §2, §3

[6] = recombinant HIV RT, 37° C., 1 hour, read-out: IC50 rRT
[7] = Human immunodeficiency virus 1, PBMC, 168 h, read-out: IC50 RT-MDR
[8] = Human immunodeficiency virus 1, PBMC, read-out: IC50 against RT-MDR
[9] = Human immunodeficiency virus 1, PBMC, 168 h
[10] = ranking order of potency, read-out: IC50 against RT-MDR

SMILES | IC50 [1, 6] [nM] | IC50 [2, 7] [nM] | IC50 [2, 8] [nM] | CC50 [3] [nM] | IC50 [1] [nM] | IC50 (HIV-1 strain HTLVIIIB; [9]) [nM] | IC50 [4, 9] [nM] | IC50 [5, 9] [nM] | melting point [°C] | other results
CCOCn1c(Cc2ccccc2)c(C(C)C)c(=O)[nH]c1=O [MKC-442, reference compound] | 800 | 300 | 300 | > 100000 | – | – | – | – | – | –
S=C(NCCC1=CCCCC1)Nc1ccc(Cl)cn1 [HI-445, N-[2-(5-Chloropyridinyl)]-N′-[2-(1-Cyclohexenyl)ethyl]thiourea] | – | 1 | 1 | > 100000 | 500 | 3 | 30000 | 68 | 165 | times more effective against RT-MDR than against HTLVIIIB [2]: 3 times; times more potent than AZT against RT-MDR [2]: 200 times; times more potent than MKC-442 against RT-MDR [2]: 300 times; times more potent than delavirdine against RT-MDR [2]: 400 times; times more potent than nevirapine against RT-MDR [2]: 5000 times; times more potent than trovirdine against RT-MDR [2]: 20 times; fold more effective than nevirapine or delavirdine against A17 ([5]; vs nevirapine or delavirdine): > 1,400 fold; fold more effective than trovirdine against A17 ([5]; vs trovirdine): > 7 fold; toxicity at effective concentrations [3]: Neither compound exhibited significant toxicity
Cc1ccnc2c1NC(=O)c1cccnc1N2C1CC1 [Nevirapine, reference compound] | – | 5000 | 5000 | 10500 | – | 34 | > 100000 | > 100000 | – | –
S=C(NCCc1ccccn1)Nc1ccc(Br)cn1 [Trovirdine, N-[2-(5-Bromopyridinyl)]-N′-[2-(Pyridinyl)]thiourea, reference compound] | 800 | – | – | > 100000 | – | – | – | – | – | IC50 (HIV-1 strain HTLVIIIB; p24 production in PBMC, day 7): 7 nM; IC50 [2, 10]: 20 nM; IC50 ([4]; p24 production in PBMC, day 7): > 100000 nM; IC50 ([5]; p24 production in PBMC, day 7): 500 nM
S=C(NCCC1=CCCCC1)Nc1ccc(Br)cn1 [HI-346, N-[2-(5-Bromopyridinyl)]-N′-[2-(1-Cyclohexenyl)ethyl]thiourea] | – | 1 | 1 | > 100000 | 400 | 3 | 18700 | – | 172 to 173 | times more effective against RT-MDR than against HTLVIIIB [2]: 3 times; times more potent than AZT against RT-MDR [2]: 200 times; times more potent than MKC-442 against RT-MDR [2]: 300 times; times more potent than delavirdine against RT-MDR [2]: 400 times; times more potent than nevirapine against RT-MDR [2]: 5000 times; times more potent than trovirdine against RT-MDR [2]: 20 times; toxicity at effective concentrations [3]: Neither compound exhibited significant toxicity
Cc1cn([C@H]2C[C@H](N=[N+]=[N-])[C@@H](CO)O2)c(=O)[nH]c1=O [AZT, reference compound] | – | – | – | > 100000 | – | – | – | – | – | IC50 [2, 10]: 200 nM; IC50 ([5]; p24 production in PBMC, day 7): 6 nM
FC(F)(F)c1ccc(NC(=S)NCCC2=CCCCC2)nc1 [HI-347, N-[2-(5-Trifluoromethylpyridinyl)]-N′-[2-(1-Cyclohexenyl)ethyl]thiourea] | – | 38 | – | > 100000 | 4000 | 79 | > 100000 | 300 | 161 to 162 | –
S=C(NCCC1C2CC3CC(C2)CC1C3)Nc1ccc(Br)cn1 (stereo not drawn) [HI-504, N-[2-(5-Bromopyridinyl)]-N′-[2-(2-Adamantyl)]thiourea] | > 100000 | – | – | – | – | – | – | – | – | –
CC(C)Nc1cccnc1N1CCN(C(=O)c2cc3cc(NS(C)(=O)=O)ccc3[nH]2)CC1 [Delavirdine, reference compound] | – | 400 | 400 | 3600 | – | 9 | > 100000 | 50000 | – | –
CC1(C)C2CCC(CNC(=S)Nc3ccc(Br)cn3)C1C2 (stereo not drawn) [HI-444, N-[2-(5-Bromopyridinyl)]-N′-[2-(2-Myrtanyl)]thiourea] | > 100000 | – | – | – | – | – | – | – | 180 to 181 | –
